Data from article PMC4665511, “An Improved Neutral α-Glucosidase Assay for Assessment of Epididymal Function—Validation and Comparison to the WHO Method” (Diagnostics, 2014).

Test system: T1, Neutral α-glucosidase (NAG)
T1 construct: gene MGAM; native, unpurified enzyme in human seminal plasma
Assay: spectrophotometric PNP release at […] nm, Michaelis-Menten
Format: biochemical, Homo sapiens
Settings: seminal plasma, not purified; average of semen samples (n = 13 in methods); adapted proprietary buffer with SDS, pH 6.8, 37 °C

Q: Which Km does the source give for `O=[N+]([O-])c1ccc(O[C@H]2O[C@H](CO)[C@@H](O)[C@H](O)[C@H]2O)cc1` [para-nitrophenyl-α-D-glucopyranoside] here?
A: The Km was 4.6 ± 0.63 mM.
